Assay results reported in PMC5844225 (Journal of medicinal chemistry, 2016).

What was measured:
S. mansoni schistosomula = experiment: Automated ex vivo larval S. mansoni HCS assay; type: cell-based, Schistosoma mansoni; conditions: 48 h exposure
SmTGR = conditions: cited from earlier work

**Q.** Which schistosomula phenotype (S. mansoni schistosomula) does the source give for Cc1noc(/C=C/c2ccccn2)c1[N+](=O)[O-] [Compound 3, 2-[2-(3-methyl-4-nitro-5-isoxazolyl)vinyl]pyridine] here?
**A.** internal disruption of larvae

**Q.** Which schistosomula phenotype (S. mansoni schistosomula) does the source give for O=S(=O)(Cc1ccccc1)c1nc2ccccc2s1 [Compound 4, 2-(benzylsulfonyl)-1,3-benzothiazole] here?
**A.** internal disruption of larvae

**Q.** With Cc1c(-c2cnccn2)ssc1=S [OLT, oltipraz] as the compound, how does the SmTGR inhibition mode (SmTGR) read?
**A.** noncompetitive inhibitor
